Experimental data: article PMC11365428 (The Journal of Biological Chemistry, 2024)
Non-standard residues stand in square brackets, D forms with d. Residues, ends and D or L forms follow the SMILES beside them. pGlu = O=C1CC[C@@H](C(=O)O)N1

What was measured:
Type in all cases: cell-based
apTKRPR-A [1] = target: T1, apTKRPR-A (Aplysia californica, UniProt A0AAU7SSZ1); assay: Receptor desensitization assay, protocol 1 (prolonged agonist exposure), apTKRPR-A; conditions: 10 μM, 2, 5, 10, 15, 30 and 60 min at 37 °C; fold increase over basal; n = 3
T1 sequence (A0AAU7SSZ1 1-398): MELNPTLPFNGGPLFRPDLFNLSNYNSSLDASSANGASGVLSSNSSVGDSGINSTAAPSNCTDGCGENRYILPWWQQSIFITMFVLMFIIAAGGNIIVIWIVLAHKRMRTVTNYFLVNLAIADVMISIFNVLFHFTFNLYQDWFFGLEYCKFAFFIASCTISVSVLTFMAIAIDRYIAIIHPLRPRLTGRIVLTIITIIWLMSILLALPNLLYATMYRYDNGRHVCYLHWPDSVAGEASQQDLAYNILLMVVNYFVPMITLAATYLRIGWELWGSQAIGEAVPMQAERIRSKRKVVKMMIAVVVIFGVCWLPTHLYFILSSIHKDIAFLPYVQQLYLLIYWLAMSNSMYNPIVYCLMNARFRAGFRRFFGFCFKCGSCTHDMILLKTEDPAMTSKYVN
Method: (§1) Therefore, we adopted two protocols to study the desensitization of apTKRPRs. The protocols were performed using a procedure modified from previous work ([87], [88], [89]).
Protocol 1 ([87], [88]): Under continuous (prolonged) stimulation with an agonist, we examined agonist-induced desensitization by quantifying the rate of IP1 accumulation. Specifically, CHO-K1 cells transiently expressing pcDNA3.1-apTKRPRs were incubated in the absence or presence of 10 μM (saturating concentration) apTKRP-2b for the different duration (2, 5, 10, 15, 30, and 60 min) at 37 °C, and intracellular concentrations of IP1 accumulation were measured. Data are presented as fold increase over basal IP1 concentration (Fig. S10).

apTKRPR-B = target: T2, apTKRPR-B (Aplysia californica, UniProt A0AAU7STS1); assay: Cell surface expression by ELISA after ligand exposure, FLAG-apTKRPR-B; conditions: 10 µM, different durations, compared with 0 min, n = 4
T2 sequence (A0AAU7STS1 1-447): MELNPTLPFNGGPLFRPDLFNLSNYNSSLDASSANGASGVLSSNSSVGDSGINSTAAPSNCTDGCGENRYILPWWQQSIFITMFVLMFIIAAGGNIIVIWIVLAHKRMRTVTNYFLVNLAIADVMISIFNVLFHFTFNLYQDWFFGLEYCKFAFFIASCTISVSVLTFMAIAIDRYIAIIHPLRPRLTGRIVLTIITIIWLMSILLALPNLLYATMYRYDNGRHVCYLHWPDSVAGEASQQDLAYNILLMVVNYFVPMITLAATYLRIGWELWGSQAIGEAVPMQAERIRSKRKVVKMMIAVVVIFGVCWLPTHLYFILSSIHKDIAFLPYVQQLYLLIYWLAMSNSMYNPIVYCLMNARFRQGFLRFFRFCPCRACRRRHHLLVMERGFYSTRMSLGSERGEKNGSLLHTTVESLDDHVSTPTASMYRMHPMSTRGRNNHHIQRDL
Method: (§2) Cell surface expression determination of apTKRPRs and mutant receptors, all with FLAG tags, was performed using a procedure modified from previous work ([64], [122], [123], [124]). Specifically, CHO-K1 cells were cultured in F-12K medium (Gibco, 21127-022) with 10% FBS (Genial, G11-70500) at 37 °C in a humidified incubator containing 5% CO2. When the cells were grown to 70 to 90% confluence, transfection experiments were performed (see “Cell culture and transfection” section). After 24 h, transfected cells were plated in 96-well white clear-bottom cell culture plates (Corning, 3610) at a density of 20,000 cells in 100 μl per well and incubated overnight. The following day, culture media was aspirated and cells were washed twice with 200 μl of 1× PBS (Procell, PB180327). Then, 100 μl of 1× PBS containing 5% (w/v) BSA was added to each well and incubated at room temperature. After 30 min, 100 μl of 1:10,000 anti-FLAG M2-horseradish peroxidase conjugate (Sigma-Aldrich, Cat A8592) was added to each well and incubated for 30 min at 37 °C. Cells were washed twice with 200 μl of 1× PBS and then incubated with 200 μl of TMB Chromogen Solution (Sangon Biotech, E661007) for 30 min at 37 °C in the dark. Finally, 50 μl of ELISA Stopping Solution (Sangon Biotech, E661006) was added to each well to stop the reaction. The absorbance at 450 nm was measured using a Tecan Spark microplate reader. […]

apTKRPR-A [2] = target: T1, apTKRPR-A; assay: Receptor desensitization assay, protocol 2 (repeated agonist exposure), apTKRPR-A; conditions: 10 μM pretreatment 2-60 min without LiCl, wash, second 10 μM application for 15 min with LiCl; % of control; n = 5
Method: as §1
Protocol 2 ([89]): To simulate repeated stimulation with an agonist, we examined agonist-induced desensitization by quantifying the accumulation level of IP1 after two applications of the agonist/ligand. Because the IP1 accumulation assay involves using LiCl to stop the degradation of IP1, in this protocol, LiCl was applied only during the second application of the agonist. Specifically, to elicit desensitization, cells were first exposed to 10 μM apTKRP-2b in the absence of LiCl for various pretreatment durations (pretreatment stage/phase Ⅰ). After this agonist exposure, cells were washed (three times) rapidly with PBS (phase Ⅱ), and the wash was consistently performed in each experiment. Responsiveness of the receptor was then assessed by measuring intracellular concentrations of IP1 accumulation in response to a second application of 10 μM apTKRP-2b for 15 min in the presence of LiCl (phase Ⅲ) (Fig. S11).

apTKRPR-B T391 = apTKRPR-B T391 (Aplysia californica, UniProt A0AAU7STS1, DEL392-447); assay: Cell surface expression by ELISA after ligand exposure, truncated apTKRPR-B T391; conditions: 10 µM, 60 min, n = 5
Method: as §2

Structure (SMILES): CC(C)C[C@H](NC(=O)[C@H](Cc1c[nH]cn1)NC(=O)[C@@H]1CCCN1C(=O)[C@@H]1CCC(=O)N1)C(=O)NCC(=O)N[C@@H](Cc1ccccc1)C(=O)N[C@@H](Cc1c[nH]cn1)C(=O)NCC(=O)N[C@@H](CO)C(=O)N[C@@H](CCCNC(=N)N)C(N)=O [apTKRP-2b] ([pGlu]PHLGFHGSR-NH2)
- time course of IP1 accumulation, apTKRPR-A (protocol 1) (apTKRPR-A [1]): initially increased and then reached a plateau
- cell surface receptor expression of apTKRPR-B after agonist exposure (apTKRPR-B): significant loss of receptor expression
- IP1 accumulation after pretreatment, apTKRPR-A (protocol 2) (apTKRPR-A [2]): IP1 accumulation was less after the second exposure
- cell surface receptor expression of T391 after agonist exposure (apTKRPR-B T391): did not change significantly
